According to article PMC6112376, “Comprehensive Analyses and Prioritization of Tox21 10K Chemicals Affecting Mitochondrial Function by in-Depth Mechanistic Studies” (Environmental Health Perspectives, 2018):
Read-outs that look alike come from different tables or passages of the source.

Columns and labels:
rat primary hepatocytes = test: MMP assay in rat primary hepatocytes
[1] = tested on: mitochondrial respiratory chain complex I; assay type: biochemical, rat
[2] = tested on: Caenorhabditis elegans strain PE255; test: In vivo C. elegans ATP status assay
HepG2 cells [3] = tested on: HepG2 cells
HepG2 cells [4] = test: ROS-Glo hydrogen peroxide (ROS) assay; assay type: cell-based, human; conditions: 2 h treatment; mean±SD of three experiments
HepG2 cells [5] = test: Intracellular ATP content (cell viability) assay; assay type: cell-based, human; conditions: for IC50: 40 h treatment, mean±SD of three experiments
[6] = target: T1, mitochondrial respiratory chain complex II (Rattus norvegicus, UniProt P21913+Q641Z9+Q6PCT8+Q920L2); test: Respiratory chain complex II activity; assay type: biochemical; conditions: tested up to 100μM
T1 construct: Submitochondrial particles were prepared by subjecting the intact rat mitochondria, isolated as described above, to three successive freeze–thaw cycles; from tissue; host or cells: rat liver mitochondria (submitochondrial particles)

[7] = tested on: isolated rat liver mitochondria; test: Oxygen consumption, Clark-type oxygen electrode; assay type: biochemical; conditions: for I-ADP, % of control (O2 consumption rate): glutamate/malate driven state 3 respiration; for I-ADP, % of control (O2 consumption rate) / I-sub, % of control (O2 consumption rate) / II-ADP, % of control (O2 consumption rate) / II-sub, % of control (O2 consumption rate): isolated rat liver mitochondria; for I-sub, % of control (O2 consumption rate): glutamate/malate driven state 4 respiration; for II-ADP, % of control (O2 consumption rate): succinate-driven state 3 respiration; for II-sub, % of control (O2 consumption rate): succinate-driven state 4 respiration
hNSC = test: MMP assay in human neural stem cells (hNSC); assay type: cell-based; conditions: mean±SD of three experiments
[8] = tested on: p53 (p53-bla HCT-116 cells); test: p53 β-lactamase reporter gene assay; assay type: cell-based, human; conditions: 16 h incubation; mean±SD of three experiments
[9] = tested on: Caenorhabditis elegans (Bristol N2); test: C. elegans larval development and growth assay
HepG2 cells [10] = conditions: cited from earlier work
[11] = tested on: mitochondrial respiratory chain complex III; assay type: biochemical, rat
[12] = tested on: mitochondrial respiratory chain complex IV; assay type: biochemical, rat
[13] = tested on: mitochondrial respiratory chain complex V; assay type: biochemical, rat
[14] = tested on: Nrf2/ARE (ARE-bla HepG2 cells); test: ARE β-lactamase reporter gene assay; assay type: cell-based, human
[15] = tested on: HeLa cells expressing YFP-Parkin; test: Parkin translocation assay; assay type: cell-based, human
HepG2 cells [16] = test: Oxygen consumption, Seahorse XF24 analyzer; assay type: cell-based, human

T1 sequence (Q920L2 35-656): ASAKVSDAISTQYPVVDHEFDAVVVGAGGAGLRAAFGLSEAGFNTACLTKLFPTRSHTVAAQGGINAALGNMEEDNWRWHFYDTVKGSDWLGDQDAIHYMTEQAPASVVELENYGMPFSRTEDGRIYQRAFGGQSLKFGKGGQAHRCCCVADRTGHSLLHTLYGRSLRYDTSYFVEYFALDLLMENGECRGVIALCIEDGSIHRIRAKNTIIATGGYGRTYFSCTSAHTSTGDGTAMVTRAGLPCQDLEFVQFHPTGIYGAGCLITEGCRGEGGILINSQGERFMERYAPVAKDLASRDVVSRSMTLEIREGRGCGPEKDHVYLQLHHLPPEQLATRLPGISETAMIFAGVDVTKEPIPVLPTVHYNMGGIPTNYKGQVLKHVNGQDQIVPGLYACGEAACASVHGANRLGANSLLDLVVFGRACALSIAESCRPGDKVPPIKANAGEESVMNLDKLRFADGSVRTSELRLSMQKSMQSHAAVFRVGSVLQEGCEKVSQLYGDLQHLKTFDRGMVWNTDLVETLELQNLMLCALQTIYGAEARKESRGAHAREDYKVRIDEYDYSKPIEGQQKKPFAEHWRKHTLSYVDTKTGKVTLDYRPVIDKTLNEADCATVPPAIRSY
T1 sequence (P21913 31-282): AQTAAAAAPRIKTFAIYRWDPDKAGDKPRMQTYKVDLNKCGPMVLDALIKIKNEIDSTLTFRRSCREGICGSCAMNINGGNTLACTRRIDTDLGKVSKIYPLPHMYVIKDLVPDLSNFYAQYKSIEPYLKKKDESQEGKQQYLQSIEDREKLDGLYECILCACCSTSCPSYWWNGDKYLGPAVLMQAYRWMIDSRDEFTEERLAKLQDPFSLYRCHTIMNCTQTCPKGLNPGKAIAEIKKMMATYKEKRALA
T1 sequence (Q641Z9 1-169): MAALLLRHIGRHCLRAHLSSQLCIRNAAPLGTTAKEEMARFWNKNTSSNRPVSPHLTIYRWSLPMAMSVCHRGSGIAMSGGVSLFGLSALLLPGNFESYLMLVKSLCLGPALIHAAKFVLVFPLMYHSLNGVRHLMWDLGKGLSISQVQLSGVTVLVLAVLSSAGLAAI
T1 sequence (Q6PCT8 57-159): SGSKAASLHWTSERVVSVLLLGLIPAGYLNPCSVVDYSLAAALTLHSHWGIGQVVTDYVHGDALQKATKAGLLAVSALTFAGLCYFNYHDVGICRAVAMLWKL

CCN1C(=CC=Cc2ccc3ccccc3[n+]2CC)C=Cc2ccccc21.[Cl-] [Pinacyanol chloride]
Rat hepatocytes (efficacy) (MMP) (rat primary hepatocytes; % of positive control, mean±SD of three experiments): −75.4±6.24%
MMP assays efficacy (%) Rat Hepatocytes (rat primary hepatocytes; rat hepatocytes, mean ± SD of three experiments): -99±26%
IC50 (rat primary hepatocytes; read-out: IC50 in rat primary hepatocytes (MMP, tier-one retest), existing Tox21 10K library stock solutions, 1-h treatment, Excel Table S1): 40 nM
IC50 (rat primary hepatocytes; read-out: Rat hepatocytes IC50 (MMP), 1 h treatment, fresh re-sourced stocks, mean±SD of three experiments): 310 ± 150 nM
inhibition effect on Complex I ([1]; at 4.0μM): 23.6%
Complex I % inhibition ([1]; at 20μM): 38.3±1.92 at 20μM %
LUM: mean difference in luminescence (ATP content) relative to plate controls ([2]; 0.005 µM): 0.1466
LUM: mean difference in luminescence (ATP content) relative to plate controls ([2]; 0.01 µM): 0.1001
LUM: mean difference in luminescence (ATP content) relative to plate controls ([2]; 0.05 µM): 0.1404
LUM: mean difference in luminescence (ATP content) relative to plate controls ([2]; 0.1 µM): 0.3228
LUM: mean difference in luminescence (ATP content) relative to plate controls ([2]; 0.5 µM): 1.055
LUM: mean difference in luminescence (ATP content) relative to plate controls ([2]; 1 µM): -0.08665
LUM: mean difference in luminescence (ATP content) relative to plate controls ([2]; 5 µM): 3.898
LUM: mean difference in luminescence (ATP content) relative to plate controls ([2]; 10 µM): 3.595
LUM: mean difference in luminescence (ATP content) relative to plate controls ([2]; 25 µM): 3.9673
LUM: mean difference in luminescence (ATP content) relative to plate controls ([2]; 50 µM): 3.294
LUM: mean difference in luminescence (ATP content) relative to plate controls ([2]; 75 µM): 3.822
LUM: mean difference in luminescence (ATP content) relative to plate controls ([2]; 100 µM): 4.216
effect on ATP content (in words) ([2]; 0.5–100μM, 24 h exposure): inhibited
LEC LUM: lowest effect concentration for luminescence, a measure of nematode ATP content ([2]; C. elegans ATP, JT trend test, Bonferoni correction p<0.05): 0.25 µM
HepG2 (efficacy) Glucose (MMP) (HepG2 cells [3]; 5 mM glucose, % of positive control, mean±SD of three experiments): −85.9±3.17%
HepG2 (efficacy) Galactose (MMP) (HepG2 cells [3]; 10 mM galactose, % of positive control, mean±SD of three experiments): −78.9±0.48%
MMP assays efficacy (%) HepG2 (HepG2 cells [3]; HepG2 cells, single number from one experiment): -89%
IC50 (HepG2 cells [3]; read-out: HepG2 IC50 Galactose (MMP), 10 mM galactose, no glucose, 1 h treatment, mean±SD of three experiments): 0.06 ± 0.02 µM
IC50 (HepG2 cells [3]; read-out: HepG2 IC50 Glucose (MMP), 5 mM glucose, 1 h treatment, fresh re-sourced stocks, mean±SD of three experiments): 0.04 ± 0.01 µM
IC50 (HepG2 cells [3]; read-out: IC50 in HepG2 cells (MMP, tier-one retest), existing Tox21 10K library stock solutions, Excel Table S1): 0.02 µM
IC50 (HepG2 cells [3]; read-out: MMP assays IC50 (µM) HepG2, HepG2 cells, single number from one experiment): 0.0155 µM
ROS (HepG2) EC50 (HepG2 cells [4]): Inactive
IC50 (HepG2 cells [5]; 5 mM glucose, read-out: ATP (HepG2, glucose) IC50): 10700 ± 6390 nM
ATP (HepG2, glucose) (efficacy) (HepG2 cells [5]; 5 mM glucose, % of positive control): −107±6.73%
IC50 (HepG2 cells [5]; 10 mM galactose, read-out: ATP (HepG2, galactose) IC50): 5880 ± 2330 nM
ATP (HepG2, galactose) (efficacy) (HepG2 cells [5]; 10 mM galactose, % of positive control): −105±4.87%
Complex II % inhibition (activity call) [6]: Inactive
I-ADP, % of control (O2 consumption rate) ([7]; 0.8 µM): 88 (40.4) % of control
I-sub, % of control (O2 consumption rate) ([7]; 0.8 µM): 113 (12.6) % of control
II-ADP, % of control (O2 consumption rate) ([7]; 0.8 µM): 81 (60.9) % of control
II-sub, % of control (O2 consumption rate) ([7]; 0.8 µM): 103 (21.3) % of control
I-ADP, % of control (O2 consumption rate) ([7]; 4 µM): 57 (26.1) % of control
I-sub, % of control (O2 consumption rate) ([7]; 4 µM): 108 (12.1) % of control
II-ADP, % of control (O2 consumption rate) ([7]; 4 µM): 56 (42.3) % of control
II-sub, % of control (O2 consumption rate) ([7]; 4 µM): 79 (16.2) % of control
I-ADP, % of control (O2 consumption rate) ([7]; 20 µM): 31 (14.2) % of control
I-sub, % of control (O2 consumption rate) ([7]; 20 µM): 69 (7.7) % of control
II-ADP, % of control (O2 consumption rate) ([7]; 20 µM): 35 (26.2) % of control
II-sub, % of control (O2 consumption rate) ([7]; 20 µM): 69 (14.3) % of control
I-ADP, % of control (O2 consumption rate) ([7]; 100 µM): 21 (9.7) % of control
I-sub, % of control (O2 consumption rate) ([7]; 100 µM): 76 (11.8) % of control
II-ADP, % of control (O2 consumption rate) ([7]; 100 µM): 11 (7.6) % of control
II-sub, % of control (O2 consumption rate) ([7]; 100 µM): 27 (8.5) % of control
effect on mitochondrial respiration (in words) ([7]; Clark-type oxygen electrode, concentrations up to 100μM): slightly milder inhibitory effects on both glutamate/malate-driven respiration and succinate-driven respiration
Potential Mechanism ([7]; mitochondrial respiration in isolated rat liver mitochondria, Clark type oxygen electrode, over tested concentrations): Inhibitor
IC50 (hNSC; 1 h treatment, fresh re-sourced stocks, read-out: hNSC IC50 (MMP)): 40 ± 10 nM
hNSC (efficacy) (MMP) (hNSC; % of positive control): −97.1±7.31%
p53 (HCT-116) EC50 [8]: Inactive
EXT: mean difference in nematode size relative to plate controls ([9]; 0.005 µM): 0.5663
EXT: mean difference in nematode size relative to plate controls ([9]; 0.01 µM): 0.679
EXT: mean difference in nematode size relative to plate controls ([9]; 0.05 µM): 1.058
EXT: mean difference in nematode size relative to plate controls ([9]; 0.1 µM): 0.8774
EXT: mean difference in nematode size relative to plate controls ([9]; 0.5 µM): 1.355
larval growth effect at 0.5μM ([9]; 0.5μM, 48 h exposure): severe larval growth arrest
EXT: mean difference in nematode size relative to plate controls ([9]; 1 µM): 1.41
EXT: mean difference in nematode size relative to plate controls ([9]; 5 µM): 1.888
EXT: mean difference in nematode size relative to plate controls ([9]; 10 µM): 1.689
EXT: mean difference in nematode size relative to plate controls ([9]; 50 µM): 0.7889
effect on larval growth (in words) ([9]; 0.5–100μM, 48 h exposure): inhibited
LEC EXT: lowest effect concentration for extinction, a measure of nematode size ([9]; C. elegans larval growth, JT trend test, Bonferoni correction p<0.05): 0.005 µM
inhibitory effect at (concentration) on larval growth in the C. elegans assay ([9]; quoted in Discussion): 0.005 µM
MMP assays efficacy (%) qHTS-HepG2 (HepG2 cells [10]): -91±3%
IC50 (HepG2 cells [10]; read-out: MMP assays IC50 (µM), qHTS-HepG2): 0.01 µM
Complex III % inhibition (activity call) [11]: Inactive
Complex IV % inhibition (activity call) [12]: Inactive
Complex V % inhibition (activity call) [13]: Inactive
EC50 ([14]; 16 h incubation, mean±SD of three experiments, read-out: ARE (HepG2) EC50): 1390 ± 950 nM
ARE (HepG2) (efficacy) ([14]; % of positive control): 62.8±13.4%
Parkin translocation into mitochondria (in words) ([15]; 3 h): patterns similar to antimycin A and FCCP
Parkin recruitment ([15]; HeLa cells stably expressing YFP-Parkin, treated for 2 h): Active
effect on oxygen consumption rate, Seahorse (in words) (HepG2 cells [16]): inhibitory patterns similar to that of rotenone
Activity in oxygen consumption (HepG2 cells [16]; Seahorse XF24, HepG2 cells, 25 mM glucose, 1, 4, 16, and 64μM): Inhibitor
